Laboratory results taken from US12378508B2, “Organ-on-chips that mimic human pregnancy and parturition” (The Texas A&M University System, priority 2020, dated 2025).

Columns and labels:
[1] = system: amnion epithelial cells (AECs); assay: Cell migration through type IV collagen-filled microchannels of AM-OOC (bright field microscopy); format: cell-based, human; details: coculture, OS (CSE) cotreatment in both chambers
Source text: Before using the AM-OOC, devices were washed 3 times with PBS and coated with Matrigel as previously described. The next day, devices were washed 3 times with complete DMEM-F12 medium before cell seeding. Primary cells were then trypsinized and stained with live cell dyes for green fluorescent protein (GFP) (for AEC; CellLight Histone 2B-GFP) or red fluorescent protein (RFP) (for AMC; CellLight Histone 2B-RFP) following the protocol provided by the company (10594 and 10595; Thermo Fisher Scientific, Waltham, MA, USA). Then, 120,000 AECs were loaded into the outer chamber, and 40,000 AMCs were loaded into the inner chamber of the AM-OOC. The AM-OOCs were incubated at 37° C. with 5% CO2 for 24 h before localized treatment (see next section).
To test the effect of OS on cellular transition in the amnion membrane, each AM-OOC was treated with one of the following for 48 h: 1) normal cell culture conditions (control DMEM-F12 medium); 2) OS conditions [induced by treating cells with cigarette smoke extract (CSE)] diluted 1:25 in AEC medium or diluted 1:75 in AMC medium; and 3) to verify the effect of OS, cells were cotreated with an OS inducer (CSE) and an antioxidant or stress signaler p38 MAPK inhibitor [N-acetyl-L-cysteine (NAC, 15 mM, A7250; MilliporeSigma] (23, 29) and SB203580 ([…], S8307; MilliporeSigma) (23, 29), a p38 MAPK inhibitor and a known inducer of EMT. […]

[2] = system: maternal decidua (DECI) chamber; assay: LPS induced inflammation propagation in FMI-OOC, cytokines in cell supernatant; format: cell-based
Procedure: (§1) FIG. 12A illustrates after lipopolysaccharide (LPS) treatment in the AEC chamber for 24, 48, or 72 hours, cell supernatants were collected from each cell chamber within the FMI-OOC to document LPS induced inflammation propagation. LPS induced an increase in AEC IL-8 production at 24 and 48 hours, which reached the maternal decidua chamber by 72 hours, causing an increase in IL-8. Documenting LPS induced fetal inflammation can reach the maternal compartment in 72 hours within an FMI-OOC device.
(§2) FIG. 12B illustrates after LPS treatment in the maternal decidua (DECI) chamber for 24, 48, or 72 hours, cell supernatants were collected from each cell chamber within the FMI-OOC to document LPS induced inflammation propagation. LPS induced an increase in DECI IL-6 production at 24, which reached the fetal AEC chamber by 24 hours, causing a rise in IL-8 that increased over 72 hours. Documenting LPS induced maternal inflammation can reach the fetal compartment in 72 hours within an FMI-OOC device.
(§3) The device described here expands the previously described two-chamber coculture model into a four-chamber coculture model to include both fetal and maternal cell components. The fetal membrane-decidua interface model (FMI-OOC) composed of four coculture compartments interconnected through arrays of microfluidic channels (FIG. 10 and FIG. 11). Here, three cell types from the fetal side (AEC, AMC, chorion mesenchymal cells (CMC)/chorion trophoblast (CT)) and one from the maternal side (decidua cells) were used, establishing the first OOC model that contains both fetal and maternal cells. Cell loading concentration into each chamber mimicked those of in utero cell ratios of the fetal membrane tissue. The microfluidic channel array prevents cells from flowing into the neighboring compartments during initial cell loading, allow localized drug treatment of each cell layer, and allow taking supernatant from each layer independently for local biochemical analysis. At the same time, these channels allow biochemicals to diffuse between the layers, and also permit cell migration and transition.

AEC chamber = assay: as above; format: cell-based
Procedure: as §1, §2, §3

Row | Compound | effect on OS cotreatment-induced AEC transition, blocked migration and increased inflammation [1] | IL-8 in maternal decidua chamber ([2]; LPS treatment in the AEC chamber, by 72 hours) | DECI IL-6 production ([2]; LPS treatment in the maternal decidua (DECI) chamber, at 24) | AEC IL-8 production (AEC chamber; LPS treatment in the AEC chamber, at 24 and 48 hours) | IL-8 in fetal AEC chamber (AEC chamber; LPS treatment in the maternal decidua (DECI) chamber, from 24 hours, increased over 72 hours)
1 | CC(=O)N[C@@H](CS)C(=O)O [NAC, N-acetyl-L-cysteine] | prevented |  |  |  | 
2 | lipopolysaccharide [LPS] |  | increase | increase | increase | rise
